Data published in PMC9820118, “Betulin Acid Ester Derivatives Inhibit Cancer Cell Growth by Inducing Apoptosis through Caspase Cascade Activation: A Comprehensive In Vitro and In Silico Study” (International Journal of Molecular Sciences, 2022).

Assay: Solubility in DMSO for stock preparation
Format: physicochemical
Conditions: not given

Row | SMILES | solubility in DMSO
1 | C=C(C)C1CCC2(COC(=O)C=C(C)C(=O)N3CCCCC3)CCC3(C)C(CCC4C5(C)CCC(O)C(C)(C)C5CCC43C)C12 (stereo not shown) [3c] | not soluble in DMSO
2 | C=C(C)[C@@H]1CC[C@]2(COC(=O)CCCC(=O)N3CCCCC3)CC[C@]3(C)C(CCC4[C@@]5(C)CC[C@H](O)C(C)(C)C5CC[C@]43C)C12 (stereo partly shown) [4c] | not soluble in DMSO
3 | C=C(C)[C@@H]1CC[C@]2(COC(=O)CCCCCCCCCC(=O)N3CCCCC3)CC[C@]3(C)C(CCC4[C@@]5(C)CC[C@H](O)C(C)(C)C5CC[C@]43C)C12 (stereo partly shown) [5c] | not soluble in DMSO
4 | C=C(C)[C@@H]1CC[C@]2(COC(=O)c3cccc(C(=O)N4CCCCC4)c3)CC[C@]3(C)C(CCC4[C@@]5(C)CC[C@H](O)C(C)(C)C5CC[C@]43C)C12 (stereo partly shown) [7c] | not soluble in DMSO

Assay: not given
Design: method as in earlier work
Conditions: literature lipophilicity of RP-TLC reference compounds; cited from earlier work

Row | SMILES | LogPlit
5 | c1ccc(CCc2ccccc2)cc1 [dibenzyl, reference compound] | 4.49

Assay: Experimental lipophilicity by RP-TLC
Conditions: RP-TLC, RP-18 F254S, acetone / Tris buffer pH 7.4, extrapolated to zero acetone

Row | SMILES | RM0
6 | C=C(C)C1CCC2(COC(=O)C=C(C)C(=O)N3CCCCC3)CCC3(C)C(CCC4C5(C)CCC(O)C(C)(C)C5CCC43C)C12 (stereo not shown) [3c] | 5.650
7 | C=C(C)[C@@H]1CC[C@]2(COC(=O)CCCC(=O)N3CCCCC3)CC[C@]3(C)C(CCC4[C@@]5(C)CC[C@H](O)C(C)(C)C5CC[C@]43C)C12 (stereo partly shown) [4c] | 5.012
8 | C=C(C)[C@@H]1CC[C@]2(COC(=O)CCCCCCCCCC(=O)N3CCCCC3)CC[C@]3(C)C(CCC4[C@@]5(C)CC[C@H](O)C(C)(C)C5CC[C@]43C)C12 (stereo partly shown) [5c] | 5.768
9 | C=C(C)[C@@H]1CC[C@]2(COC(=O)c3cccc(C(=O)N4CCCCC4)c3)CC[C@]3(C)C(CCC4[C@@]5(C)CC[C@H](O)C(C)(C)C5CC[C@]43C)C12 (stereo partly shown) [7c] | 5.773
10 | c1ccc(CCc2ccccc2)cc1 [dibenzyl, reference compound] | 3.54
